# Measurements as given in PubChem BioAssay AID2696 (Johns Hopkins Ion Channel Center, 2010).
# Target: Short transient receptor potential channel 6 (Mus musculus) (UniProt Q61143)
# Assay: TRPC6 inhibitor potency, dose response, cell-based, mouse TRPC6, HEK293, membrane potential (AID 2696)
# Conditions: TRPC6-expressing HEK293 cells, membrane potential dye fluorescence, acetylcholine-stimulated
# Chain of Short transient receptor potential channel 6 (Mus musculus) (Q61143 whole entry, looked up): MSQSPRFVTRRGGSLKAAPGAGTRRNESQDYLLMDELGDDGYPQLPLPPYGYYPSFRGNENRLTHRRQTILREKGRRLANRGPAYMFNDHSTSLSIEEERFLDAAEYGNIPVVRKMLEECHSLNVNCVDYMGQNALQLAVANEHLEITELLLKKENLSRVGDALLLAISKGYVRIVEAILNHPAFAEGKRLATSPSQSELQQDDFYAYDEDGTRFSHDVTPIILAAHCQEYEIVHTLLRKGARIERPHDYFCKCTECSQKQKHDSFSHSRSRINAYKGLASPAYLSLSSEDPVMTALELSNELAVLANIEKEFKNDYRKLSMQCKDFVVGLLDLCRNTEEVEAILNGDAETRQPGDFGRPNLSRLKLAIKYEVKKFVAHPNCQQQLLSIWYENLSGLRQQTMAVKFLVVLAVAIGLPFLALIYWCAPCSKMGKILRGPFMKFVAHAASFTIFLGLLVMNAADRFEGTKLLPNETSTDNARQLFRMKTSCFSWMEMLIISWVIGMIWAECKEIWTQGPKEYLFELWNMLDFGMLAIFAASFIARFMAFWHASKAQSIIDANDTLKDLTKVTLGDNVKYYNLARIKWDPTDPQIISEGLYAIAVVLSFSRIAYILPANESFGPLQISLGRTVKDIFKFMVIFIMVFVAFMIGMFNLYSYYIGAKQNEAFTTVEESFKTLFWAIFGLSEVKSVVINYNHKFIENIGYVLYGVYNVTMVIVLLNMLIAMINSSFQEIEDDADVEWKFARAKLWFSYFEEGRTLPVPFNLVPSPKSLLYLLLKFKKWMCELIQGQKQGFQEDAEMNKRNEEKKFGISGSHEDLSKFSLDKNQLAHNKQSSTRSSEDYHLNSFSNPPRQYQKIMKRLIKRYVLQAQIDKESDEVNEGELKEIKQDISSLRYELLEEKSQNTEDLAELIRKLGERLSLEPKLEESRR
row,Structure (SMILES),IC50
1,COC(=O)c1ccc(NC(=O)N2CCCC(C(=O)c3ccccc3OC)C2)cc1 (stereo not given),79.4 µM
2,OC(C#CCN1CCCCC1)(c1ccccc1)c1ccccc1,1.12 µM
3,CC(=O)OCC[N+](C)(C)C,1.58 µM
4,C[N+](C)(N)CCOC(=O)C(O)(c1ccccc1)C1CCCCC1 (stereo not given),0.32 µM
5,N=c1c(C(=O)NCC2CCCO2)cc2c(=O)n3ccccc3nc2n1Cc1ccccc1Cl (stereo not given),44.7 µM
6,O=C(CSc1c2c(nc3ccc(Cl)cc13)CCCC2)NCCCN1CCOCC1,39.8 µM
7,COc1ccc(N2CCN(S(=O)(=O)CCNC(=O)COc3ccccc3C)CC2)cc1,39.8 µM
8,CCCCCC[N+](C)(C)CC/C=C1/c2ccccc2Sc2ccc(Cl)cc21,12.6 µM
9,COc1cc(/C=N/Nc2nc(N3CCCC3)nc(N3CCCC3)n2)ccc1OCc1ccccc1F,39.8 µM
10,Cn1c(=O)[nH]c(=O)c2c1nc(N1CCCCCC1)n2CCN1CCCCCC1,39.8 µM
11,CN1CCCC1CCNc1ccc2c(=O)c3ccccc3oc2c1 (stereo not given),63.1 µM
12,Cc1cc(C)n(-c2nc(SCCN(C)C)c3c4c(sc3n2)COC(C)(C)C4)n1,79.4 µM
13,C[N+]12CCC(CC1)C(=C(c1ccccc1)c1ccccc1)C2,4.47 µM
14,CN(C)CCCNc1nc(-c2ccccc2)nc2ccccc12,79.4 µM
15,CCOC(=O)c1cn(C2CC2)c2c(F)c(NCCCN(C)C)c(F)cc2c1=O,70.8 µM
16,CCC(CO)(C(=O)OC1CC2CCC(C1)N2C)c1ccccc1 (stereo not given),0.09 µM
17,CN1CCN(c2ncccc2S(=O)(=O)N2CCCCC2)CC1,11.2 µM
18,Cc1nnsc1C(=O)N/N=C/c1ccc2ccccc2c1O,8.91 µM
19,CC(C)N1CCC2(CC1)N=C(c1ccc3c(c1)OCO3)CC(c1cc(Cl)ccc1O)N2 (stereo not given),70.8 µM
20,CN(C)CCOC1c2ccccc2CSc2ccccc21 (stereo not given),12.6 µM
21,O=C(CNCCC1=CCCCC1)Nc1ccc(N2CCCCCC2)cc1,70.8 µM
22,Cc1ccc(C(O)(CCN2CCCCC2)c2ccccc2)cc1 (stereo not given),19.9 µM
23,CCCCCCCCCCCCn1ccc(=N)cc1,35.5 µM
24,CCN(CC)CC(=O)N1c2ccccc2Sc2ccc(Cl)cc21,44.7 µM

row,Structure (SMILES),IC50
1,CC(C)Cn1c(=O)c(C(=O)Nc2ccncc2)c(O)c2ccccc21,3.16 µM
2,Nc1c2c(nc3ccccc13)N(C1CCCCC1)CC2,70.8 µM
3,C[N+]1(C)C2CCC1CC(OC(=O)C(CO)c1ccccc1)C2 (stereo not given),0.07 µM
4,O=C(CCCOc1ccc(Cl)cc1Cl)N1CCN(c2ccccn2)CC1,63.1 µM
5,COc1ccc(Nc2ccnc3ccccc23)cc1,70.8 µM
6,c1ccc2c(c1)CC1CNCc3cccc(c31)S2 (stereo not given),70.8 µM
7,Cc1cccc(OCc2nnc(SCc3cc(=O)n4cc(Br)ccc4n3)o2)c1,70.8 µM
8,COC(=O)c1ccc(Nc2cc(C)nc3ccc(C)cc23)cc1,31.6 µM
9,Cc1cccn2c(=O)c3cc(C(=O)NCc4ccco4)c(=N)n(C(C)C)c3nc12,44.7 µM
10,CCOC(=O)c1cnc2c(C)cccc2c1NCCCN1CCOCC1,44.7 µM
11,CCN(CC)CCCOC(=O)C1(c2ccccc2)CCCC1,11.2 µM
12,Cc1cc(C)nc(/N=C(\N)N(Cc2ccccc2)Cc2ccccc2)n1,28.2 µM
13,COc1cccc(Nc2nc(NCCO)c3ccccc3n2)c1,63.1 µM
14,Cc1nnc(SCCn2c(N3CCN(C)CC3)nc3c2c(=O)[nH]c(=O)n3C)s1,50.1 µM
15,Cc1ccc(N2C(=O)CSC2c2c(F)cccc2Cl)cc1 (stereo not given),17.8 µM
16,CN(C)c1ccc(C2N(C)C(=O)c3ccccc3N2C)cc1 (stereo not given),79.4 µM
17,Cc1cc(-n2cccn2)ccc1CN1CCN(CC(C)C)C(CCO)C1 (stereo not given),11.2 µM
18,Cc1c(CCOC(=O)C23CC4CC(CC(C4)C2)C3)sc[n+]1Cc1ccccc1,39.8 µM
19,Cc1ccc(CNc2ccc3c(c2)ncn3C(C)(C)C)cc1,44.7 µM
20,Cc1c(C)n(Cc2ccccc2)c2ccc(C(=O)OCCCN(C)C)cc12,44.7 µM
21,C=C(C)c1cccc(C(C)(C)NC(=O)NCCN(CC)CC)c1,28.2 µM
22,COc1ccc(OC)c2sc(N(CCN(C)C)C(=O)c3ccc4ccccc4c3)nc12,70.8 µM
23,CN1CCC(OC(c2ccccc2)c2ccccc2)CC1,15.8 µM
24,CN(C)CCCOC(=O)C1c2ccccc2Oc2ccccc21,6.31 µM

row,Structure (SMILES),IC50
1,CCN(CC)CCCOC(=O)C(c1ccccc1)c1ccccc1,3.16 µM
2,Cn1c(NCc2c[nH]c3ccccc23)nc2ccccc21,50.1 µM
3,CCCCCCCCCCn1ccc(=N)cc1,39.8 µM
4,O=C(NNS(=O)(=O)c1ccc(Cl)cc1)C1CCN(Cc2ccccc2)CC1,35.5 µM
5,Cc1cccc(-c2nc(NCCCN3CCOCC3)c3ccccc3n2)c1,70.8 µM
6,CN1[C@@H]2CC[C@H]1CC(OC(=O)C(CO)c1ccccc1)C2 (stereo not given in full),0.08 µM
7,c1ccc2c(c1)CCc1ccccc1C2=C1CCNCC1,28.2 µM
8,Cc1ccccc1Nc1nc(N)c2ccccc2n1,44.7 µM
9,CN(C)C(C)(C)/C=C/C(O)(c1ccccc1)c1ccccc1,17.8 µM
10,CC(C)c1ccc(OCC(O)Cn2cnc3ccccc32)cc1 (stereo not given),39.8 µM
11,Cc1ccc(-c2nc(C(=O)NCCCN3CCOCC3)cc3c2[nH]c2ccccc23)cc1,50.1 µM
12,Cn1c(=O)c2c(nc(SCCN3CCCCC3)n2Cc2ccccc2)n(C)c1=O,70.8 µM
13,N#CCCN(CCN1CCCC1)S(=O)(=O)c1ccc(-c2ccc([N+](=O)[O-])cc2)cc1,63.1 µM
14,C[N+](C)(C)C/C=C1/COCO1,11.2 µM
15,Cc1onc(-c2ccccc2)c1C(=O)N/N=C/c1ccc([N+](=O)[O-])s1,39.8 µM
16,CCN(CC)CCCNc1nc2ccccc2c2nc(-c3ccncc3)nn12,44.7 µM
17,O=[N+]([O-])c1ccc(N=Nc2c(Cl)cc(O)cc2Cl)cc1,25.1 µM
18,CC(O)CNCCNCc1c(OCc2ccccc2)ccc2ccccc12 (stereo not given),44.7 µM
19,N#CC(c1cccc(Cl)c1)c1ccc2c(C(F)(F)F)cc(C(F)(F)F)nc2n1 (stereo not given),31.6 µM
20,O=C(c1ccc(C(F)(F)F)cc1)C1CCCN(C2CCSCC2)C1 (stereo not given),39.8 µM
21,CCN(CC)CCNC(=O)c1ccc(NC(=O)c2cccc(S(=O)(=O)Nc3ccc(C)cc3)c2)cc1,31.6 µM
22,Cc1c(Cl)cccc1Nc1nc(NCCO)c2ccccc2n1,79.4 µM
23,Oc1ccccc1Oc1ncc(Br)c(N2CCOCC2)n1,39.8 µM
24,CN1CCN(C2=Nc3cc(Cl)ccc3Nc3ccccc32)CC1,15.8 µM

row,Structure (SMILES),IC50
1,CN(CCOC(=O)C1c2ccccc2Oc2ccccc21)C(C)(C)C,0.89 µM
2,CCOCCCNC(=S)N1CCCN(c2nc3cc(C)ccc3cc2C#N)CC1,44.7 µM
3,COc1ccccc1N1CCN(Cc2ccc(O)c3ncccc23)CC1,39.8 µM
4,Cc1ccc(OCCCCCCN2CCNCC2)cc1,79.4 µM
5,Cc1ccc(C[n+]2c(-c3ccc(C)cc3)cc(-c3ccc(C)cc3)cc2-c2ccc(C)cc2)cc1,79.4 µM
6,COc1cc2c(cc1O)CC[n+]1cc3c(OC)c(OC)ccc3cc1-2,50.1 µM
7,CCCCCOc1ccc(CSC(=N)N)cc1[N+](=O)[O-],79.4 µM
8,CCN(CC)CCCNc1nc(-n2nc(C)cc2C)nc2sc3c(c12)CC(C)(C)OC3,22.4 µM
9,CCN(CC)CCOC(=O)C1(c2ccccc2)CCCC1,15.8 µM
10,CC1CCC(C(C)C)C(OCC[N+](C)(C)C)C1 (stereo not given),2.82 µM
11,CCOC(=O)C1CCCN(C(=O)c2cc3c(C)nc4ccccc4c3o2)C1 (stereo not given),50.1 µM
12,COCCCNC(=S)N1CCCN(c2nc3cc(C)ccc3cc2C#N)CC1,39.8 µM
13,Cc1cc(C)c2nc(C)cc(Nc3ccc(C(=O)NCCO)cc3)c2c1,44.7 µM
14,CC(C)[N+](C)(CCOC(=O)C1c2ccccc2Oc2ccccc21)C(C)C,0.07 µM
15,CCCC(CCC)C(=O)OC1C[C@H]2CC[C@@H](C1)[N+]2(C)C (stereo not given in full),3.55 µM
16,COc1cc(/C=N/Nc2nncc3ccccc23)cc(OC)c1OC,44.7 µM
17,O=S(=O)(Nc1nc2ccccc2[nH]1)c1ccc(Cl)cc1,7.08 µM
18,CCc1ccc(N=C2N=C(N)c3ccccc32)cc1,50.1 µM
19,CCOC(=O)c1c(CNc2ccncc2)n(C)c2cc(Br)c(O)cc12,44.7 µM
20,CCN(CC)CCC#CC(O)(c1ccccc1)C1CCCCC1 (stereo not given),11.2 µM
21,Cc1cccc(NS(=O)(=O)c2cccc(C(=O)N3CCN(c4ccccn4)CC3)c2)c1,50.1 µM
22,CCOC(=O)c1ccc(NC(=O)CC2COc3ccccc3O2)cc1 (stereo not given),63.1 µM
23,Fc1ccc([C@@H]2CCNC[C@H]2COc2ccc3c(c2)OCO3)cc1,44.7 µM
24,S=c1[nH]nc(Cc2ccccc2)n1Cc1ccco1,39.8 µM

row,Structure (SMILES),IC50
1,COc1ccc2ccccc2c1CNCCc1ccccc1,50.1 µM
2,Cc1ccccc1CCNCc1cc2cccc(C)c2[nH]c1=O,50.1 µM
3,CC(Cc1ccccc1Sc1ccccc1O)N(C)C (stereo not given),39.8 µM
4,O=C(NC(Nc1nc2ccc([N+](=O)[O-])cc2s1)(C(F)(F)F)C(F)(F)F)c1ccccc1,8.91 µM
5,CCN(CC)CCSc1nnc(Nc2ccccc2)n1-c1ccccc1,44.7 µM
6,CCOC(=O)N1CCN(S(=O)(=O)c2cc(Br)cnc2N)CC1,19.9 µM
7,COc1ccc(-c2cc(=Nc3ccc(C)cc3)c3ccccc3o2)cc1,44.7 µM
8,CCN(CC)CCC#CC(O)(c1ccccc1)c1ccccc1,14.1 µM
9,C#CC[N+]1(C)[C@@H]2CC[C@H]1CC(OC(=O)C(CO)c1ccccc1)C2 (stereo not given in full),0.28 µM
10,CCN(CC)CC(=O)Nc1cc(N(C)C)nc2ccccc12,70.8 µM
11,Cc1cc(N=Nc2ccccc2)c(NCC(O)C(O)C(O)CO)cc1C (stereo not given),50.1 µM
12,CCSc1ccc2cc(OC)ccc2[n+]1CC,50.1 µM
13,OC(CCN1CCCC1)(c1ccccc1)C1CCCCC1 (stereo not given),4.47 µM
14,CCCCc1nc2ccccc2c(N)c1CCC (tested in a mixture with another compound),70.8 µM
15,CCOC(=O)c1nc2cc3n(c(C)c-2c1C)C(C)C(C)=C3C (stereo not given),44.7 µM
16,CC(C)C(O)(C#CCN1CCCCC1)c1ccccc1 (stereo not given),11.2 µM
17,C[N+]1(C)[C@@H]2CC[C@H]1CC(OC(=O)[C@@H](CO)c1ccccc1)C2 (stereo not given in full),0.02 µM
18,CC1CCN(CC(C)CNC(=O)c2cc(-c3ccccn3)nc3ccccc23)CC1 (stereo not given),44.7 µM
19,Cc1ccccc1OCC(=O)NCCS(=O)(=O)N1CCN(c2ccc(F)cc2)CC1,44.7 µM
20,CN(c1ccccc1)P(=O)(N(C)c1ccccc1)N(C)c1ccccc1,44.7 µM
21,COc1ccccc1Nc1nc(NCC2CCCO2)c2ccccc2n1 (stereo not given),79.4 µM
22,COc1ccc2nc(C)cc(Nc3ccc(N4CCN(C)CC4)cc3)c2c1,79.4 µM
23,CN(C)CCOC(=O)C(c1ccccc1)C1(O)CCCC1 (stereo not given),1.78 µM
24,COC(=O)c1[nH]c2ccccc2c1NC(=O)CN1CCN(C/C=C/c2ccccc2)CC1,50.1 µM
